# Laboratory results reported in patent US8865653B2, “Method of treatment for immunogenic treatment resistant cancer” (Institut Gustave Roussy, priority 2010, dated 2014).
# Tests used:
# U2OS cells [1] = assay: CRT exposure by anti-CRT surface staining and FACS (Example 4); type: cell-based, human; conditions: for effect of antioxidant on CRT exposure upon Digoxin and Digitoxin treatment: NAC and GSH pretreated U2OS cells; for CRT exposure: dose dependent fashion, nanomolar range
# Experimental: (D) Cardiac glycosides at 1 μM have been analysed for CRT exposure by means of anti-CRT surface staining and FACS quantification.
# (F) U2OS cells treated with the indicated doses of Digoxin and Digitoxin were analyzed for CRT exposure by means of FACS quantified surface staining.
# MCA205 cells [2] = conditions: Martins I et al, Oncogene 2010; cited from earlier work
# U2OS cells [3] = assay: US Drug library screen: CRT-GFP, HMGB1-GFP, quinacrine; conditions: 1 μM, 4 h / 24 h / 16 h
# MCA205 cells [4] = assay: In vivo anti-tumor vaccination with MitoC / Digoxin treated MCA205 cells; set-up: species or system mice; conditions: for vaccination with cells treated with digoxin alone: single treatment
# U2OS cells [5] = assay: ATP release ENLITEN assay (Example 4); type: cell-based, human; conditions: 15 h, dose dependent fashion, nanomolar range
# Experimental: (H) ATP release was quantified by ENLITE 15 h after treatment in the supernatant of cells.
# (§1) After cell death induction, extracellular ATP was measured by luciferin-based ENLITEN ATP Assay (Promega, Madison, USA) following the manufacturer's instructions. Intracellular ATP was measured using an ATP Assay kit (Calbiochem, Darmstadt, Germany) based on luciferin-luciferase conversion following the manufacturer's instructions. For assessment of the chemoluminescent signal, the plates were read in a Fluostar luminometer (BMG Labtech).
# breast cancer = assay: Retrospective clinical study, digoxin during chemotherapy; type: in vivo, human
# Experimental: (D) D1: Overall survival of 150 breast cancer patients. 50 digoxin cotreated patients are opposed by 100 non digoxin treated controls.
# We retrospectively constructed a patient database using data obtained from Institut Gustave Roussy. The patients were divided into the digoxin receiving and into the control group. For each digoxin receiving patient two control patients with identical tumor grade and chemotherapeutic treatment have been chosen. All digoxin receiving patients were treated with digoxin while receiving chemotherapy. Age at diagnosis, pathological tumor size, lymph node involvement, tumor grade, hormone receptors, endocrine treatments, occurrence of events and follow-up were extracted from medical files and recorded in the database. After generation of the patient database statistical analyses were performed in a blinded fashion. Survival rates were estimated using the Kaplan-Meier method.
# U2OS cells [6] = assay: HMGB1 release ELISA; type: cell-based, human; conditions: 24 h, dose dependent fashion, nanomolar range
# Experimental: U2OS cells were seeded in 6 well plates 24 h before the experiment. The medium was changed to fresh DMEM before the treatment was applied. Supernatants were collected at 24 h post treatment, dying tumor cells were removed by centrifugation and supernatants were collected and shock frozen in liquid nitrogen. Quantification of HMGB1 in the collected supernatants was performed by enzyme-linked immunosorbent assay according to the manufacturer's instructions.
# γδ T cells = assay: DC-tumor mixed lymphocyte cultures (IL-1β, IL-17A ELISA); type: cell-based, mouse; conditions: 20 μg/ml IL-1RA
# Experimental: (D) DX-treated MCA205 loaded DC/γδ T cell cross-talk was also performed in the presence of 20 μg/ml IL-1RA (Amgen) or anti-IL-23 or IL-23R neutralizing antibodies or 10 μg/ml IL-18BP or 20 μM CH-223191. IL-1β and IL-17A release was measured at 48 hrs in ELISA.
# DC were propagated in Iscoves's medium (Sigma Aldrich) supplemented with J558 supernatant, 100 UI/ml Penicillin, 100 μg/ml Streptomycin, 2 mM L-glutamine, 50 μM 2-mercaptoethanol (Sigma), 10% heat-inactivated and filtered, 10% FCS and 40 ng/ml GM-CSF. DC were used between day 8 and 12 when the proportion of CD11c/MHC class II+ cells was >80%. In mixed cocultures, DC were seeded at 10^5/100 μl/well in U bottom 96 well plates. Tumor cells were treated with 25 μM DX or 2 μM MTX for 16 hrs, washed in PBS and added into these wells at 7.5×10^5/100 μl/well. 2×10^4/50 μl γδ T cells were added into the wells 12 hrs later. Supernatant was collected 48 hrs later.
# eIF2α = assay: Immunoblotting of eIF2α / PERK phosphorylation; type: cell-based
# Description: (E) The phosphorylation status of eIF2α has been assessed by immunoblotting against the phosphoneoepitope Ser51 of eIF2α by means of a monoclonal antibody. A polyclonal antibody has been used to visualize whole eIF2α protein levels.
# U2OS cells [7] = type: cell-based
# Experimental: The data is depicted as representative images (A) and (B) normalized Bax-GFP granularity values.
# The data represents mean±s.e.m. of quadruplicates from a representative experiment. […] 16 h after treatment, cell death was monitored by simultaneous staining with 3,3 dihexyloxacarbocyanine iodide (DiOC6(3)) and propidium iodide (PI), and the percentage of dying (DiOC6(3)^low PI^−, open bars) and dead (DiOC6(3)^low PI^+, closed bars) cells was determined by cytofluorometry.
# Cell death was quantified by cytofluorometric analysis using a FACS Vantage (Becton Dickinson, Mountain View, USA) as described previously (REF). Thus, cells were stained with 40 nM 3,3 dihexyloxacarbocyanine iodide (DiOC6(3); Molecular Probes, Eugene, Oreg., USA) for 30 min at 37° C. and concomitantly with 1 μg/ml propidium iodide (PI; Sigma Aldrich) for 30 min at 37° C. to determine the mitochondrial transmembrane potential. Data were statistically evaluated using CellQuest Pro software (Becton Dickinson, Mountain View, USA).
# MCA205 cells [8] = assay: In vivo anti-tumor vaccination with treated MCA205 cells (Example 3); conditions: s.c. injection, rechallenge with live tumor cells
# Experimental: (F) MCA205 cells have been used for tumor vaccination in vivo. […] The mice have been rechallenged after 6 days with living cells and the tumor growth is depicted in the survival plot (n=10).
# Tumor growth was evaluated for at least 50 days.
# U2OS cells [9] = assay: ATP release assays (quinacrine, luciferin-based); type: cell-based, human; conditions: 16 h post-treatment, intracellular and extracellular ATP
# Experimental: In short, cells were labeled with 1 μM quinacrine in Krebs-Ringer solution (125 mM NaCl, 5 mM KCl, 1 mM MgSO4, 0.7 mM KH2PO4, 2 mM CaCl2, 6 mM glucose and 25 mM Hepes, pH 7.4) for 30 min at 37° C.
# After incubation in quinacrine solution (as described above), cells were rinsed and resuspended in PBS containing 1 μg/ml PI. The samples were analyzed by means of a FACS Vantage (Becton Dickinson) and the data was statistically evaluated using the CellQuest Pro software (BD Biosciences).
# as §1
# U2OS cells [10] = assay: Analysis of surface exposed CRT (HaloTag ligand, anti-CRT immune staining)
# [11] = system: U2OS cells stably expressing CRT-GFP; assay: CRT-GFP redistribution (granularity, nuclear shape) by automated microscopy; ICCB library screen; type: cell-based, human
# Experimental: The data is depicted as mean±s.e.m. of quadruplicates from a representative experiment. (C) Immunofluorescene was conducted on CRT-GFP expressing cells by means of staining with anti-CRT antibody and subsequent confocal image acquisition. (D) CRT has been cloned in frame n-terminal to a HaloTag® sequence followed by a KDEL ER retention signal. (E) The impermeable HaloTag® ligand forms covalent bonds exclusively with surface exposed HaloTag®-CRT fusion protein, whereas intracellular HaloTag®-CRT remains undetected.
# Compounds from the ICCB known bioactive compounds library have been tested for their capacity to induce CRT-exposure. […] The cells were incubated for 4 h and were acquired by means of automated microscopy. The data is depicted as dot plots and representative images (B).
# After washing with PBS 4 viewfields per well were acquired by means of a BD pathway 855 automated microscope.
# LN resident γδ T cells = assay: Cytokine stimulation of LN-derived γδ T cells (IL-17); type: cell-based, mouse
# Experimental: (A-B) Cocultures of naïve LNs derived γδ T (A-B) or TCR δ^−T (A) cells in the presence of recombinant mouse cytokines (1 μg/ml IL-1β or/and IL-23, 5 μg/ml TGF-β, 10 μg/ml IL-6) (A) with or without TCR cross-linking with anti-CD3ε mAb pre-coated plates (5 μg/ml, Clone 145-2C11) (B).
# Naïve C57Bl/6 mice aged between 8-10 weeks were sacrificed and the skin-draining lymph nodes (LNs) including inguinal, popliteal, superficial cervical, axillary and brachial LNs were collected. LNs were squeezed with tweezers gently in digesting buffer, kept at 37° C. for 20 min and then pass through […] cell strainer to get single cell suspension. Dead cells were removed using Dead Cell Removal Kit (Miltenyi Biotec) before purifying γδ T cells with TCRγ/δ^+ T Cell Isolation Kit (Miltenyi Biotec). An autoMACS™ Separator was used with the recommended programs. Purity of this isolation normally reached 95%. The TCR δ^− CD3^+ cells fraction was also collected from the final separation step and was called ‘non γδ T’ cells for some experiments. Day 2 after DX or PBS treatment, 2.5×10^5 cells were injected directly into the tumor with insulin syringes in adoptive transfer setting.
molecule,measurement,setting,value
CC(=O)N[C@@H](CS)C(=O)O [NAC],effect of antioxidant on CRT exposure upon Digoxin and Digitoxin treatment,U2OS cells [1],significantly diminished CRT exposure
tunicamycin,immunogenic cell death when combined with cisplatin,MCA205 cells [2],could induce immunogenic cell death when combined with cisplatin
COc1cccc2c1C(=O)c1c(O)c3c(c(O)c1C2=O)C[C@@](O)(C(=O)CO)C[C@@H]3O[C@H]1C[C@H](N)[C@@H](O)[C@H](C)O1 [epirubicin],rank in screen for exposing CRT and emitting HMGB1 and ATP,U2OS cells [3],"most potent in exposing CRT, and emitting HMGB1 and ATP"
C[C@H]1O[C@@H](O[C@H]2[C@@H](O)C[C@H](O[C@H]3[C@@H](O)C[C@H](O[C@H]4CC[C@@]5(C)[C@H](CC[C@@H]6[C@@H]5C[C@@H](O)[C@]5(C)[C@@H](C7=CC(=O)OC7)CC[C@]65O)C4)O[C@@H]3C)O[C@@H]2C)C[C@H](O)[C@@H]1O [digoxin],"vaccinating effect, MCA cells cotreated with digoxin and MitoC","MCA205 cells [4]; 20 μM MitoC with 30 μM Digoxin O/N, immunocompetent mice, rechallenge after 6 days",kept living cells of the same kind from forming a tumor
same,vaccination with cells treated with digoxin alone,MCA205 cells [4],led to tumor formation at the vaccination site
same,vaccination with cells treated with digoxin alone,MCA205 cells [4]; listed as Digoxin,did not preclude the living cells from forming a tumor after rechallenge
same,ATP release,U2OS cells [5],ATP release
same,CRT exposure,U2OS cells [1],induce CRT exposure
same,"overall survival effect of digoxin, anthracyclin based chemotherapy subgroup",breast cancer; 20 digoxin cotreated vs 40 controls,completely disappears
same,overall survival of patients that received digoxin during chemotherapy,breast cancer; 50 digoxin cotreated vs 100 controls,increased overall survival
same,HMGB1 release,U2OS cells [6],HMGB1 release
IL-1RA: IL-1R1/IL-1β antagonist (Amgen),IL-1β production in DC/γδ T cell co-culture,γδ T cells,not modified
same,DC/γδ T cell cross-talk (IL-17 production) in the presence of dying cells,"γδ T cells; DX-treated MCA205 loaded DC, 48 hrs",entirely abrogated the DC/γδ T cell cross-talk
C[C@H]1O[C@@H](O[C@H]2[C@@H](O)C[C@H](O[C@H]3[C@@H](O)C[C@H](O[C@H]4CC[C@@]5(C)[C@H](CC[C@@H]6[C@@H]5CC[C@]5(C)[C@@H](C7=CC(=O)OC7)CC[C@]65O)C4)O[C@@H]3C)O[C@@H]2C)C[C@H](O)[C@@H]1O [digitoxin],ATP release,U2OS cells [5],ATP release
same,CRT exposure,U2OS cells [1],induce CRT exposure
same,HMGB1 release,U2OS cells [6],HMGB1 release
"[NH2][Pt]([NH2])([Cl])[Cl] [CDDP, cisplatin]",eIF2α phosphorylation on serine 51,eIF2α; phospho-neoepitope-specific antibody,unable to activate
same,activating phosphorylation of PERK,eIF2α; shortly after treatment,not CDDP
same,IC50,"U2OS cells [7]; short-term experiments, loss of the mitochondrial transmembrane potential ΔΨm, read-out: IC50, imminent cell death",~150 µM
same,"mitochondrial perturbations (ΔΨm dissipation, Bax-GFP relocation)",U2OS cells [7]; used at their IC50,induced similar mitochondrial perturbations
same,protective anticancer immune response after vaccination with drug-treated MCA205 cells,MCA205 cells [8],inefficient in inducing a protective anticancer immune response
same,ATP release,U2OS cells [9],induced ATP release
same,surface exposure of CRT-HaloTag,"U2OS cells [10]; cell-impermeable HaloTag ligand, microscopy and cytofluorometry",failed to induce the surface exposure
same,surface immunofluorescence staining of CRT,U2OS cells [10]; non-permeabilized CRT-GFP cells,no immunodetectable CRT was found on the surface
same,CRT-GFP granularity (relocation to peripheral granular distribution),"[11]; 1 μM MTX, 150 μM CDDP, 300 μM OXP",not after treatment with CDDP
same,chromatin condensation (nuclear apoptosis),[11]; as efficiently as MTX or OXP,able to induce chromatin condensation
TGF-β,IL-17 production by LN-resident γδ T cells in response to recombinant cytokines,LN resident γδ T cells,failed to produce IL-17
N[C@@H](CCC(=O)N[C@@H](CS)C(=O)NCC(=O)O)C(=O)O [GSH],effect of antioxidant on CRT exposure upon Digoxin and Digitoxin treatment,U2OS cells [1],significantly diminished CRT exposure
"IL-6: recombinant mouse cytokine (protein, UniProt P08505 25-211, looked up) Interleukin-6: FPTSQVRRGDFTEDTTPNRPVYTTSQVGGLITHVLWEIVEMRKELCNGNSDCMNNDDALAENNLKLPEIQRNDGCYQTGYNQEICLLKISSGLLEYHSYLEYMKNNLKDNKKDKARVLQRDTETLIHIFNQEVKDLHKIVLPTPISNALLTDKLESQKEWLRTKTIQFILKSLEEFLKVTLRSTRQT",IL-17 production by LN-resident γδ T cells in response to recombinant cytokines,LN resident γδ T cells,failed to produce IL-17
